Biological target: hCereblon(M1-L442)_hDDB1(M1-H1140) (Homo sapiens (Human), UniProt Q96SW2)
Assay: Fluorescence direct binding protocol (tryptophan fluorescence titration)
Details: fluorescence titration at 20° C., excited at 280 nm, recorded at 340 nm; protein 5.0 E−8 M; assay buffer 50 mM Hepes 7.4 200 mM NaCl; read-out: Fluorescence h-Cereblon_DDB1 Mean Kd_EQ
Summary of the method: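 At 20° C., protein at constant concentration was titrated with ligand in DMSO over at least 12 steps, exciting tryptophan at 280 nm and reading emission at 340 nm. Intensities were corrected for dilution and filter effect, and Kd was fitted assuming 1:1 binding.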

hCereblon(M1-L442)_hDDB1(M1-H1140), sequence (Q96SW2 whole entry): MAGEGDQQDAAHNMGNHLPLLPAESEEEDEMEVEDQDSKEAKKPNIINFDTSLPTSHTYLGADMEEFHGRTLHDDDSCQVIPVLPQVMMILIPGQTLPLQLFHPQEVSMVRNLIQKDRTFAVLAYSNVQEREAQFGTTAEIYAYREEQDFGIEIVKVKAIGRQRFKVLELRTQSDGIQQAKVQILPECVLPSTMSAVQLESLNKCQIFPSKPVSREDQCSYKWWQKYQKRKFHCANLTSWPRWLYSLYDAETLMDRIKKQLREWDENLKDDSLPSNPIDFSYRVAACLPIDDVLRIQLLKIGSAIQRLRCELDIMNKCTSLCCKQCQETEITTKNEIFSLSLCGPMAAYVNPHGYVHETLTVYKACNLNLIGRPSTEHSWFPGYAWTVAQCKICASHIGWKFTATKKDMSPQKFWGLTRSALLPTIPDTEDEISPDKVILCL
hCereblon(M1-L442)_hDDB1(M1-H1140), sequence (Q16531 whole entry partner): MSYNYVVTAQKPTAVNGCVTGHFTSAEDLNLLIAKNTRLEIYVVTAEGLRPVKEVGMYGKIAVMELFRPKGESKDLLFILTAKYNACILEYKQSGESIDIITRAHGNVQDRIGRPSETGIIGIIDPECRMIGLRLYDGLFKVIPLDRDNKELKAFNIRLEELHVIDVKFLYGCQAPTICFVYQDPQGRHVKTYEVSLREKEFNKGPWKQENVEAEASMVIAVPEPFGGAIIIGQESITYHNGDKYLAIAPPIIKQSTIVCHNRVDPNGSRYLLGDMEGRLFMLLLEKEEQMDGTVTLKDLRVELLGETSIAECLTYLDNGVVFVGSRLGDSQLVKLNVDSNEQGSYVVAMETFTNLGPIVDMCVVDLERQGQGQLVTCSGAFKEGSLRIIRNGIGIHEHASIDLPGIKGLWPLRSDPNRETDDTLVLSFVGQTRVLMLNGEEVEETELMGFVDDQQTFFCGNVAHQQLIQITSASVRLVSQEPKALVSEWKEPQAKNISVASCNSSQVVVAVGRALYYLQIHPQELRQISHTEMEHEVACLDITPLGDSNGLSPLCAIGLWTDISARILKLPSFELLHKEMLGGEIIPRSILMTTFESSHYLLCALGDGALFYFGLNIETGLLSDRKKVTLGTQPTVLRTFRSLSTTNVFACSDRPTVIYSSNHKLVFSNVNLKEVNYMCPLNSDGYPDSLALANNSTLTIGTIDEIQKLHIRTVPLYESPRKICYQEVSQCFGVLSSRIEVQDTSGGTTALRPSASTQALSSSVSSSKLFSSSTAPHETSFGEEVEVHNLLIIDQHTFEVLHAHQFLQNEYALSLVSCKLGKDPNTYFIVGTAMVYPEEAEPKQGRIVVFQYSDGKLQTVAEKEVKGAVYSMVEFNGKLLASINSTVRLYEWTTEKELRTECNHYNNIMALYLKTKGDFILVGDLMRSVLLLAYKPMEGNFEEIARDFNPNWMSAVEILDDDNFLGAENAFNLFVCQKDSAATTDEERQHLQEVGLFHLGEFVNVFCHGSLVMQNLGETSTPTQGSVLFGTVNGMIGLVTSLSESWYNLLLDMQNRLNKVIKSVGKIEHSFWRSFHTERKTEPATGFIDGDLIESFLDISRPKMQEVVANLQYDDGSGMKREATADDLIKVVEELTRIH

Row | SMILES | Kd [nM]
1 | COC(=O)c1cccc2c1CCCN2C(=O)Nc1ccc2[nH]c(=O)[nH]c2c1 [Example 98, Methyl 1-((2-oxo-2,3-dihydro-1H-benzo[d]imidazol-5-yl)carbamoyl)-1,2,3,4-tetrahydroquinoline-5-carboxylate] | 86
2 | O=C(Nc1ccc2[nH]c(=O)[nH]c2c1)c1ccccc1 [Example 73, N-(2-Oxo-2,3-dihydro-1H-benzo[d]imidazol-5-yl)benzamide] | 11
3 | CC(=O)N1CCC(NS(=O)(=O)c2ccc3[nH]c(=O)[nH]c3c2)CC1 [Example 117, N-(1-Acetylpiperidin-4-yl)-2-oxo-2,3-dihydro-1H-benzo[d]imidazole-5-sulfonamide] | 8
4 | CN(C)C(=O)c1ccc2c(c1)nc(-c1cc(-c3cncn3C)nc3ccccc13)n2-c1ccc2[nH]c(=O)[nH]c2c1 [Example 18, N,N-Dimethyl-2-(2-(1-methyl-1H-imidazol-5-yl)quinolin-4-yl)-2′-oxo-2′,3′-dihydro-1′H-[1,5′-bibenzo[d]imidazole]-5-carboxamide] | 16
5 | O=c1[nH]c2ccc(-n3ccnc3-c3ccnc4ccccc34)cc2[nH]1 [Example 12, 5-(2-(Quinolin-4-yl)-1H-imidazol-1-yl)-1H-benzo[d]imidazol-2(3H)-one] | 1
6 | O=C1CCCN1c1ccc2[nH]c(=O)[nH]c2c1 [Example 33, 5-(2-Oxopyrrolidin-1-yl)-1,3-dihydro-2H-benzo[d]imidazol-2-one] | 24
7 | O=C(Nc1cccc(-c2cnco2)c1)c1ccc2[nH]c(=O)[nH]c2c1 [Example 142, N-(3-(Oxazol-5-yl)phenyl)-2-oxo-2,3-dihydro-1H-benzo[d]imidazole-5-carboxamide] | 11
8 | COC(=O)c1cccc2c1CCN2C(=O)c1ccc2[nH]c(=O)[nH]c2c1 [Example 54, Methyl 1-(2-oxo-2,3-dihydro-1H-benzo[d]imidazole-5-carbonyl)indoline-4-carboxylate] | 25
9 | CN(C(=O)c1ccc2[nH]c(=O)[nH]c2c1)c1ccccc1 [Example 96, N-Methyl-2-oxo-N-phenyl-2,3-dihydro-1H-benzo[d]imidazole-5-carboxamide] | 9
10 | Cn1c(=O)[nH]c2nc(-c3ccccc3)ccc21 [Example 44, 1-Methyl-5-phenyl-3H-imidazo[4,5-b]pyridin-2-one] | < 1
11 | O=C(Nc1ccc2[nH]c(=O)[nH]c2c1)C1CCc2ccccc21 (stereo not drawn) [Example 69, N-(2-Oxo-2,3-dihydro-1H-benzo[d]imidazol-5-yl)-2,3-dihydro-1H-indene-1-carboxamide] | 29
12 | CNC(=O)c1cccc2c1nc(C(C)C)n2-c1ccc2[nH]c(=O)[nH]c2c1 [Example 60, 2-Isopropyl-N-methyl-2′-oxo-2′,3′-dihydro-1′H-[1,5′-bibenzo[d]imidazole]-4-carboxamide] | 47
13 | CNC(=O)c1ccc2c(c1)nc(C(F)(F)F)n2-c1ccc2[nH]c(=O)[nH]c2c1 [Example 13, N-Methyl-2′-oxo-2-(trifluoromethyl)-2′,3′-dihydro-1′H-[1,5′-bibenzo[d]imidazole]-5-carboxamide] | 7
14 | COC(=O)c1ccc2nc(C(C)C)n(-c3ccc4[nH]c(=O)[nH]c4c3)c2c1 [Example 48, Methyl 2-isopropyl-2′-oxo-2′,3′-dihydro-1′H-[1,5′-bibenzo[d]imidazole]-6-carboxylate] | 11
15 | COC(=O)c1ccc2c(c1)CCN2C(=O)Nc1ccc2[nH]c(=O)[nH]c2c1 [Example 92, Methyl 1-((2-oxo-2,3-dihydro-1H-benzo[d]imidazol-5-yl)carbamoyl)indoline-5-carboxylate] | 33
16 | CC(=O)N1CCN(C(=O)c2ccc3[nH]c(=O)[nH]c3c2)CC1 [Example 22, 5-(4-Acetylpiperazine-1-carbonyl)-1H-benzo[d]imidazol-2(3H)-one] | 103
17 | CC(=O)N1CCc2c(C(=O)Nc3ccc4[nH]c(=O)[nH]c4c3)cccc21 [Example 145, 1-Acetyl-N-(2-oxo-2,3-dihydro-1H-benzo[d]imidazol-5-yl)indoline-4-carboxamide] | 84
18 | CNC(=O)c1ccc2c(c1)nc(-c1cn(C)cn1)n2-c1ccc2[nH]c(=O)[nH]c2c1 [Example 65, N-Methyl-2-(1-methyl-1H-imidazol-4-yl)-2′-oxo-2′,3′-dihydro-1′H-[1,5′-bibenzo[d]imidazole]-5-carboxamide] | 9
19 | CC(=O)Nc1ccc2c(c1)CCN2Cc1ccc2[nH]c(=O)[nH]c2c1 [Example 150, N-(1-((2-Oxo-2,3-dihydro-1H-benzo[d]imidazol-5-yl)methyl)indolin-5-yl)acetamide] | 3
20 | COc1ccccc1N1CCN(C(=O)Nc2ccc3[nH]c(=O)[nH]c3c2)CC1 [Example 128, 4-(2-Methoxyphenyl)-N-(2-oxo-2,3-dihydro-1H-benzo[d]imidazol-5-yl)piperazine-1-carboxamide] | 14

Row | SMILES | Kd [nM]
21 | CCOC(=O)c1ccc(NC(=O)Nc2ccc3[nH]c(=O)[nH]c3c2)cc1 [Example 126, Ethyl 4-(3-(2-oxo-2,3-dihydro-1H-benzo[d]imidazol-5-yl)ureido)benzoate] | 9
22 | COc1cccc(-c2ncccc2C(=O)Nc2ccc3[nH]c(=O)[nH]c3c2)c1 [Example 138, 2-(3-Methoxyphenyl)-N-(2-oxo-2,3-dihydro-1H-benzo[d]imidazol-5-yl)nicotinamide] | 109
23 | Cc1sc2c(c1C)C(c1ccc(Cl)cc1)=N[C@@H](CC(=O)NCCCCCNC(=O)c1cccc3c1CCN3C(=O)Nc1ccc3[nH]c(=O)[nH]c3c1)c1nnc(C)n1-2 [Example D, N4-[5-[[2-[(9S)-7-(4-Chlorophenyl)-4,5,13-trimethyl-3-thia-1,8,11,12-tetrazatricyclo[8.3.0.02,6]trideca-2(6),4,7,10,12-pentaen-9-yl]acetyl]amino]pentyl]-N1-(2-oxo-1,3-dihydrobenzimidazol-5-yl)indoline-1,4-dicarboxamide] | 7
24 | Nc1ccc2c(c1)CCN2Cc1ccc2[nH]c(=O)[nH]c2c1 [Example 149, 5-((5-Aminoindolin-1-yl)methyl)-1,3-dihydro-2H-benzo[d]imidazol-2-one] | 17
25 | CNC(=O)c1ccc2c(c1)nc(-c1cc(-c3cncn3C)nc3ccccc13)n2-c1ccc2[nH]c(=O)[nH]c2c1 [Example 2, N-Methyl-2-(2-(1-methyl-1H-imidazol-5-yl)quinolin-4-yl)-2′-oxo-2′,3′-dihydro-1′H-[1,5′-bibenzo[d]imidazole]-5-carboxamide] | 28
26 | Nc1ccccc1Nc1ccc2[nH]c(=O)[nH]c2c1 [Example 6, 5-((2-Aminophenyl)amino)-1H-benzo[d]imidazol-2(3H)-one] | 54
27 | COC(=O)c1ccc(Nc2ccc3[nH]c(=O)[nH]c3c2)nc1 [Example 153, Methyl 6-((2-oxo-2,3-dihydro-1H-benzo[d]imidazol-5-yl)amino)nicotinate] | 16
28 | CNC(=O)c1ccc(C(=O)Nc2ccc3[nH]c(=O)[nH]c3c2)cn1 [Example 133, N2-Methyl-N5-(2-oxo-2,3-dihydro-1H-benzo[d]imidazol-5-yl)pyridine-2,5-dicarboxamide] | 121
29 | CNC(=O)c1ccc2c(c1)nc(-c1ccccc1)n2-c1ccc2[nH]c(=O)[nH]c2c1 [Example 10, N-Methyl-2′-oxo-2-phenyl-2′,3′-dihydro-1′H-[1,5′-bibenzo[d]imidazole]-5-carboxamide] | 88
30 | Cn1c(=O)n(C)c2cc(Nc3ccccc3N)ccc21 [Example 50, 5-((2-Aminophenyl)amino)-1,3-dimethyl-1,3-dihydro-2H-benzo[d]imidazol-2-one] | 11
31 | O=C(c1nc2ccccc2n1-c1ccc2[nH]c(=O)[nH]c2c1)N1CCCCC1 [Example 103, 5-[2-(Piperidine-1-carbonyl)benzimidazol-1-yl]-1,3-dihydrobenzimidazol-2-one] | 35
32 | CC(=O)N1CCN(c2ccc3[nH]c(=O)[nH]c3c2)CC1 [Example 62, 5-(4-Acetylpiperazin-1-yl)-1,3-dihydro-2H-benzo[d]imidazol-2-one] | < 1
33 | CNC(=O)c1ccc2c(c1)nc(Cc1ccccc1OC)n2-c1ccc2[nH]c(=O)[nH]c2c1 [Example 45, 2-(2-Methoxybenzyl)-N-methyl-2′-oxo-2′,3′-dihydro-1′H-[1,5′-bibenzo[d]imidazole]-5-carboxamide] | 22
34 | O=C(Nc1ccc2[nH]c(=O)[nH]c2c1)N1CCc2ccccc21 [Example 105, N-(2-Oxo-2,3-dihydro-1H-benzo[d]imidazol-5-yl)indoline-1-carboxamide] | 4
35 | O=C(Nc1ccc2[nH]c(=O)[nH]c2c1)c1ccccc1Cc1ccccc1 [Example 123, 2-Benzyl-N-(2-oxo-2,3-dihydro-1H-benzo[d]imidazol-5-yl)benzamide] | 22
36 | CCc1nc2cc(C(=O)NCCOCCOCCNC(=O)C[C@@H]3N=C(c4ccc(Cl)cc4)c4c(sc(C)c4C)-n4c(C)nnc43)ccc2n1-c1ccc2[nH]c(=O)[nH]c2c1 [Example B, (S)—N-(2-(2-(2-(2-(4-(4-Chlorophenyl)-2,3,9-trimethyl-6H-thieno[3,2-f][1,2,4]triazolo[4,3-a][1,4]diazepin-6-yl)acetamido)ethoxy)ethoxy)ethyl)-2-ethyl-2′-oxo-2′,3′-dihydro-1′H-[1,5′-bibenzo[d]imidazole]-5-carboxamide] | 51
37 | CC(=O)N1CCC(C(=O)Nc2ccc3[nH]c(=O)[nH]c3c2)CC1 [Example 91, 1-Acetyl-N-(2-oxo-2,3-dihydro-1H-benzo[d]imidazol-5-yl)piperidine-4-carboxamide] | 5
38 | COC(=O)c1ccc2c(c1)CN(c1ccc3[nH]c(=O)[nH]c3c1)C2=O [Example 112, Methyl 1-oxo-2-(2-oxo-1,3-dihydrobenzimidazol-5-yl)isoindoline-5-carboxylate] | 57
39 | NS(=O)(=O)c1ccc(C(=O)Nc2ccc3[nH]c(=O)[nH]c3c2)cc1 [Example 100, N-(2-Oxo-2,3-dihydro-1H-benzo[d]imidazol-5-yl)-4-sulfamoylbenzamide] | 29

Source: patent US11787802B2, “Dihydrobenzimidazolones for medical treatment” (C4 Therapeutics, Inc., priority 2017, dated 2023)
